The results in this text go back to patent US8168164B2, “Targeted conjugates and radiation” (Purdue Research Foundation, priority 2006, dated 2012).

Each structure is given as a SMILES string.

Common to all, as to assay type: in vivo, mice
Test [1] deals with M109 cells. In words: Effect of ligand-immunogen conjugates in combination with radiation on tumor volume. The procedure: (§1) Six to eight-week old (˜20-22 grams) female Balb/c mice were immunized subcutaneously at multiple sites with fluorescein (FITC)-labeled keyhole limpet hemocyanin (KLH) and were injected with GPI-0100, a saponin adjuvant. After assuring that anti-FITC antibody titers were high in all mice (as evidenced by the results of ELISA assays of serum samples of the mice), each animal was injected subcutaneously in the shoulder with 1×10^6 M109 cells following the pre-immunization with FITC-KLH. M109 cells are a syngeneic lung cancer cell line that expresses high levels of the folate receptor. Cancer loci were then allowed to attach and grow. When the tumor size reached about 300 mm^2 (about 2 weeks post M109 cell injection), treatments were initiated (day 1).
The mice were divided into four groups (4 mice per group). One group was injected subcutaneously with phosphate-buffered saline (PBS). Two other groups were injected subcutaneously with 500 nmoles/kg of folate-FITC and 20,000 IU/dose of recombinant human IL-2 in a series of 5 daily injections for three weeks (5 days on and 2 days off). The mice were also injected subcutaneously with IFN-α at 25,000 IU/dose (3 times per week for 3 weeks). One of these groups also received a single dose of radiation of 3 Gy on day 1. The fourth group received only a single dose of radiation of 3 Gy on day 1. The radiation was performed with a device approved for human use and calibrated to give the desired radiation dose to mice.
The efficacy of these therapies were then evaluated by monitoring tumor volumes. Tumor volumes were calculated using the equation V=a×b^2/2, where “a” is the length of the tumor and “b” is the width expressed in millimeters. The tumors were measured using calipers.
The procedures were similar to those described in Example 3 except that the radiation was given in three doses of three Gy each on days 1, 5, and 12.

The test system of test [2] is M109 cells. In words: Effect on non-irradiated tumors (tumor volume, two tumor sites). The following applies: folate-FITC. The procedure: as §1, with “each animal was injected subcutaneously in the shoulder with 1×10^6 M109 cells following” left out
[…] One group was injected subcutaneously with phosphate-buffered saline (PBS). Two other groups were injected subcutaneously with 500 nmoles/kg of folate-FITC and 20,000 IU/dose of recombinant human IL-2 in a series of 5 daily injections for three weeks (5 days on and 2 days off). The mice were also injected subcutaneously with IFN-α at 25,000 IU/dose (3 times per week for 3 weeks). […]
The efficacy of these therapies were then evaluated by monitoring tumor volumes. Tumor volumes were calculated using the equation V=a×b^2/2, where “a” is the length of the tumor and “b” is the width expressed in millimeters. The tumors were measured using calipers. […]

A further test concerns M109 tumors. Put plainly: Effect of ligand-immunogen conjugates in combination with taxol on tumor volume. As to conditions: folate-FITC and cytokines with 3 doses of taxol (20 mg/kg, every other day) in place of radiation.

Regarding `Nc1nc2ncc(CNc3ccc(C(=O)NC(CCC(=O)NCCNC(=S)Nc4ccc(C(=O)O)c(-c5c6ccc(=O)cc-6oc6cc(O)ccc56)c4)C(=O)O)cc3)nc2c(=O)[nH]1` (stereo not drawn) [folate-FITC], the “effect on tumor volume (FIG. 1)” value in the test with M109 cells [1] (500 nmoles/kg folate-FITC + IL-2 20,000 IU/dose + IFN-α 25,000 IU/dose s.c., 3 weeks, single dose of radiation of 3 Gy on day 1, FITC-KLH immunized Balb/c mice) is on record as “act synergistically with low dose radiation to eliminate tumors”. Besides, the “effect on tumor volume (FIG. 2)” value in the test on M109 cells [1] (folate-FITC plus IL-2 and IFN-α, radiation three doses of three Gy on days 1, 5, and 12) is “synergistic with low dose radiation to eliminate tumors”. In the test on M109 cells [1] (folate-FITC plus IL-2 and IFN-α, radiation three doses of three Gy on days 1, 5, and 12, 4 mice per group), the “mice tumor-free at the end of the assay” value is listed as “Two out of the four mice”. Besides, the “mice completely tumor-free after treatment” value in the test on M109 cells [2] (cytokines and radiation (3 Gy days 1 and 5 on tail tumor only), 6 mice per group) is listed as “Two out of six mice”. Also, the “response of tumors on the same animal that were not irradiated (FIG. 4)” value with M109 cells [2] (cytokines and radiation, tail tumor irradiated days 1 and 5 with 3 Gy per dose, neck tumor not irradiated) is on record as “improved response”. For the same compound, the “effect on tumor mass in combination with taxol (FIG. 5)” value in the test on M109 tumors is recorded as “not synergistic with taxol”.
